The results in this text go back to patent US8987500B2, “4-biphenyl-substituted pyrazolidin-3,5-dione derivatives” (Bayer CropScience AG, priority 2003, dated 2015).

What all share (type): in vivo
Experiment [1] concerns greenhouse red spider mite (Tetranychus urticae). Description: Tetranychus test (OP-resistant/spray treatment), Example G. To be noted: Tetranychus urticae (OP-resistant), bean leaf discs, spray treatment. The procedure:
Tetranychus Test (OP-Resistant/Spray Treatment)
(§1) To produce a suitable preparation of active compound, 1 part by weight of active compound is mixed with the stated amounts of solvents and emulsifier, and the concentrate is diluted with emulsifier-containing water to the desired concentration.
Discs of bean leaves (Phaseolus vulgaris) which are infested by all stages of the greenhouse red spider mite (Tetranychus urticae) are sprayed with a preparation of active compound of the desired concentration.
After the desired period of time, the activity in % is determined 100% means that all spider mites have been killed; 0% means that none of the spider mites have been killed.

Experiment [2] deals with green peach aphid (Myzus persicae). The experiment can be described thus: Myzus test (spray treatment), Example D. To be noted: Table D, 500 g/ha active compound. How it is done: Myzus Test (Spray Treatment)
as §1
Discs of Chinese cabbage (Brassica pekinensi), which are infested by all stages of the green peach aphid (Myzus persicae) are sprayed with a preparation of active compound of the desired concentration.
After the desired period of time, the activity in % is determined 100% means that all aphids have been killed; 0% means that none of the aphids have been killed.

Experiment [3] relates to larvae of the mustard beetle (Phaedon cochleariae). The experiment can be described thus: Phaedon test (spray treatment), Example E. The following applies: Table E, 500 g/ha active compound. How it is done: (§2) Phaedon Test (Spray Treatment) [table] To produce a suitable preparation of active compound, 1 part by weight of active compound is mixed with the stated amounts of solvents and emulsifier, and the concentrate is diluted with emulsifier-containing water to the desired concentration. Discs of Chinese cabbage (Brassica pekinensis) are sprayed with a preparation of active compound of the desired concentration and, after they have dried, populated with larvae of the mustard beetle (Phaedon cochleariae). After the desired period of time, the activity in % is determined 100% means that all beetle larvae have been killed; 0% means that none of the beetle larvae have been killed.

Experiment [4] relates to caterpillars of the army worm (Spodoptera frugiperda). The experiment can be described thus: Spodoptera frugiperda test (spray treatment), Example F. To be noted: maize leaf discs. The procedure: as §2, with “Spodoptera frugiperda” for “Phaedon”, “maize leaves (Zea mays)” for “Chinese cabbage (Brassica pekinensis)”, “caterpillars” for “larvae”, “army worm (Spodoptera frugiperda).” for “mustard beetle (Phaedon cochleariae).”, “caterpillars” for “beetle larvae”

As for `Cc1ccc(-c2ccc(F)c(Cl)c2)cc1-c1c(O)n2n(c1=O)CCCC2` [Example I-1-a-17], the “Kill rate in % after 5d” value in experiment [1] (500 g/ha) was found to be 90%.
For the molecule `CCOC(=O)Oc1c(-c2cc(-c3cc(F)ccc3F)ccc2C)c(=O)n2n1CCOCC2` [Ex. I-2-c-16], the “Kill rate in % after 5d” value in experiment [2] amounted to 100%.
On to `Cc1ccc(-c2ccc(F)c(Cl)c2)cc1-c1c(OC(=O)C(C)(C)C)n2n(c1=O)CCOCC2` [Ex. I-2-b-17], for which the “Kill rate in % after 7d” value in experiment [3] stood at 100%.
Same read-out and setting: in the case of `Cc1ccc(-c2ccc(Cl)c(Cl)c2)cc1-c1c(O)n2n(c1=O)CCCC2` [Example I-1-a-13] it was 100%; in that of `Cc1ccc(-c2ccc(Cl)c(Cl)c2)cc1-c1c(OC(=O)C(C)(C)C)n2n(c1=O)CCCC2` [Ex. I-1-b-13], 100%.
`Cc1ccc(-c2cccc([N+](=O)[O-])c2)cc1-c1c(OC(=O)C(C)(C)C)n2n(c1=O)CCCC2` [Ex. I-1-b-26]: the “Kill rate in % after 5d” value in experiment [2] was found to be 100%.
Turning to `CCOC(=O)Oc1c(-c2cc(-c3cccc(C(F)(F)F)c3)ccc2C)c(=O)n2n1CCOCC2` [Ex. I-2-c-19], the “Kill rate in % after 7d” value in experiment [3] is recorded as 100%.
With `Cc1ccc(-c2ccc(C(F)(F)F)cc2)cc1-c1c(OC(=O)C(C)(C)C)n2n(c1=O)CCOCC2` [Ex. I-2-b-20], the “Kill rate in % after 7d” value in experiment [4] (500 g/ha) is 100%.
Turning to `Cc1ccc(-c2cccc(Cl)c2)cc1-c1c(O)n2n(c1=O)CCOCC2` [Example I-2-a-2], the “Kill rate in % after 5d” value in experiment [1] (500 g/ha) was determined as 90%.
With `CCOC(=O)Oc1c(-c2cc(-c3cc(Cl)cc(Cl)c3)ccc2C)c(=O)n2n1CCOCC2` [Ex. I-2-c-14], the “Kill rate in % after 7d” value in experiment [3] was 100%.
For the molecule `Cc1ccc(-c2cc(F)ccc2F)cc1-c1c(OC(=O)C(C)(C)C)n2n(c1=O)CCCC2` [Ex. I-1-b-16], the “Kill rate in % after 7d” value in experiment [3] was 100%.
As to `CCOC(=O)Oc1c(-c2cc(-c3ccc(Cl)cc3Cl)ccc2C)c(=O)n2n1CCOCC2` [Ex. I-2-c-11], in experiment [3], the “Kill rate in % after 7d” value came out at 100%.
On the same count and under the same terms, as for `CCOC(=O)Oc1c(-c2cc(-c3ccc(C)cc3)ccc2C)c(=O)n2n1CCCC2` [Ex. I-1-c-9], the figure is 100%.
Consider `Cc1ccc(-c2ccc(Oc3ccccc3)cc2)cc1-c1c(OC(=O)C(C)(C)C)n2n(c1=O)CCCC2` [Ex. I-1-b-28], for which the “Kill rate in % after 5d” value in experiment [1] (500 g/ha) came out at 100%.
In the case of `CCOC(=O)Oc1c(-c2cc(-c3ccccc3C)ccc2C)c(=O)n2n1CCOCC2` [Ex. I-2-c-7], the “Kill rate in % after 7d” value in experiment [3] is given as 100%.
For the molecule `CCOC(=O)Oc1c(-c2cc(-c3ccc(Cl)cc3Cl)ccc2C)c(=O)n2n1CCCC2` [Ex. I-1-c-11], the “Kill rate in % after 5d” value in experiment [1] (500 g/ha) came out at 100%.
Same read-out and setting: as for `Cc1cc(C)c(-c2c(OC(=O)C(C)(C)C)n3n(c2=O)CCCC3)c(C)c1-c1ccc(F)cc1` [Ex. I-1-b-34], the figure is 90%.
Consider `CCOC(=O)Oc1c(-c2cc(-c3ccccc3F)ccc2C)c(=O)n2n1CCOCC2` [Ex. I-2-c-4], for which the “Kill rate in % after 7d” value in experiment [3] is reported as 100%.
With `Cc1ccc(-c2ccc(Cl)cc2Cl)cc1-c1c(O)n2n(c1=O)CCCC2` [Example I-1-a-11], in experiment [1] (500 g/ha), the “Kill rate in % after 5d” value was 100%.
Regarding `CCOC(=O)Oc1c(-c2cc(-c3ccc(F)c(Cl)c3)ccc2C)c(=O)n2n1CCOCC2` [Ex. I-2-c-17], the “Kill rate in % after 7d” value in experiment [3] is listed as 100%.
On to `Cc1ccc(-c2cccc(Cl)c2Cl)cc1-c1c(OC(=O)C(C)(C)C)n2n(c1=O)CCOCC2` [Ex. I-2-b-10], for which the “Kill rate in % after 5d” value in experiment [1] (500 g/ha) was determined as 100%.
On the same count and under the same terms, in the case of `CCOC(=O)Oc1c(-c2cc(-c3ccc(OC)cc3)ccc2C)c(=O)n2n1CCOCC2` [Ex. I-2-c-23] it was 100%.
With `CCOC(=O)Oc1c(-c2cc(-c3cccc(Cl)c3Cl)ccc2C)c(=O)n2n1CCOCC2` [Ex. I-2-c-10], in experiment [1] (500 g/ha), the “Kill rate in % after 5d” value was 100%.
On to `Cc1ccc(-c2ccc(Cl)c(Cl)c2)cc1-c1c(O)n2n(c1=O)CCOCC2` [Example I-2-a-13], for which the “Kill rate in % after 7d” value in experiment [3] is 100%.
Consider `CCOC(=O)Oc1c(-c2cc(-c3cccc([N+](=O)[O-])c3)ccc2C)c(=O)n2n1CCOCC2` [Ex. I-2-c-26], for which the “Kill rate in % after 5d” value in experiment [1] (100 g/ha) is recorded as 90%.
For the molecule `CCOC(=O)Oc1c(-c2cc(-c3ccccc3C)ccc2C)c(=O)n2n1CCCC2` [Ex. I-1-c-7], the “Kill rate in % after 5d” value in experiment [1] (500 g/ha) was 100%.
Take `Cc1ccc(-c2cccc(F)c2)cc1-c1c(OC(=O)C(C)(C)C)n2n(c1=O)CCOCC2` [Ex. I-2-b-5]: the “Kill rate in % after 7d” value in experiment [4] (500 g/ha) amounted to 100%.
With `CCOC(=O)Oc1c(-c2cc(-c3cc(Cl)cc(Cl)c3)ccc2C)c(=O)n2n1CCCC2` [Ex. I-1-c-14], the “Kill rate in % after 7d” value in experiment [3] stood at 100%.
Same read-out and setting: in the case of `CCOC(=O)Oc1c(-c2cc(-c3cc(Cl)ccc3Cl)ccc2C)c(=O)n2n1CCOCC2` [Ex. I-2-c-12] it was 100%.
As to `Cc1ccc(-c2ccc(F)cc2)cc1-c1c(OC(=O)C(C)(C)C)n2n(c1=O)CCOCC2` [Ex. I-2-b-6], in experiment [1] (100 g/ha), the “Kill rate in % after 5d” value is given as 90%.
On to `CCOC(=O)Oc1c(-c2cc(-c3cccc(F)c3)ccc2C)c(=O)n2n1CCOCC2` [Ex. I-2-c-5], for which the “Kill rate in % after 7d” value in experiment [4] (500 g/ha) came to 100%.
Same read-out and setting: as for `Cc1ccc(-c2ccc(F)cc2)cc1-c1c(O)n2n(c1=O)CCOCC2` [Example I-2-a-6], the figure is 100%; as for `CCOC(=O)Oc1c(-c2cc(-c3ccc(Cl)cc3)ccc2C)c(=O)n2n1CCOCC2` [Ex. I-2-c-3], 100%.
On the same count and under the same terms, as for `Cc1ccc(-c2ccc(Cl)cc2)cc1-c1c(OC(=O)C(C)(C)C)n2n(c1=O)CCOCC2` [Ex. I-2-b-3], the figure is 83%.
Take `CCOC(=O)Oc1c(-c2cc(-c3cc(Cl)ccc3Cl)ccc2C)c(=O)n2n1CCCC2` [Ex. I-1-c-12]: in experiment [1] (500 g/ha), the “Kill rate in % after 5d” value is given as 100%.
Consider `Cc1ccc(-c2ccc(Cl)cc2)cc1-c1c(OC(=O)C(C)C)n2n(c1=O)CCCC2` [Ex. I-1-b-32], for which the “Kill rate in % after 7d” value in experiment [4] (100 g/ha) turned out to be 100%.
For the molecule `Cc1ccc(-c2ccc(F)cc2F)cc1-c1c(OC(=O)C(C)(C)C)n2n(c1=O)CCCC2` [Ex. I-1-b-15], in experiment [4] (500 g/ha), the “Kill rate in % after 7d” value is listed as 100%.
On to `Cc1ccc(-c2cccc(Cl)c2Cl)cc1-c1c(OC(=O)C(C)(C)C)n2n(c1=O)CCCC2` [Ex. I-1-b-10], for which the “Kill rate in % after 5d” value in experiment [1] (500 g/ha) worked out at 90%.
Turning to `Cc1ccc(-c2cccc(Cl)c2Cl)cc1-c1c(O)n2n(c1=O)CCCC2` [Example I-1-a-10], in experiment [1] (500 g/ha), the “Kill rate in % after 5d” value was found to be 90%.
Consider `CCOC(=O)Oc1c(-c2cc(-c3cccc(Cl)c3)ccc2C)c(=O)n2n1CCOCC2` [Ex. I-2-c-2], for which the “Kill rate in % after 7d” value in experiment [4] (500 g/ha) is 83%.
Turning to `CCOC(=O)Oc1c(-c2cc(-c3ccc(F)cc3F)ccc2C)c(=O)n2n1CCOCC2` [Ex. I-2-c-15], the “Kill rate in % after 7d” value in experiment [3] stood at 100%.
Regarding `CCOC(=O)Oc1c(-c2cc(-c3cc(F)ccc3F)ccc2C)c(=O)n2n1CCCC2` [Ex. I-1-c-16], the “Kill rate in % after 5d” value in experiment [1] (500 g/ha) was determined as 100%.
As to `CCOC(=O)Oc1c(-c2cc(-c3ccc(F)c(Cl)c3)ccc2C)c(=O)n2n1CCCC2` [Ex. I-1-c-17], the “Kill rate in % after 7d” value in experiment [4] (500 g/ha) worked out at 83%. Also, the “Kill rate in % after 5d” value in experiment [1] (500 g/ha) is given as 100%.
On to `CCOC(=O)Oc1c(-c2cc(-c3cccc(C(F)(F)F)c3)ccc2C)c(=O)n2n1CCCC2` [Ex. I-1-c-18], for which, in experiment [4] (500 g/ha), the “Kill rate in % after 7d” value amounted to 100%.
As to `Cc1ccc(-c2ccc(C)c(-c3c(OC(=O)C(C)(C)C)n4n(c3=O)CCCC4)c2)cc1` [Ex. I-1-b-9], the “Kill rate in % after 5d” value in experiment [1] (500 g/ha) was 100%.
Consider `Cc1ccc(-c2cccc(C(F)(F)F)c2)cc1-c1c(OC(=O)C(C)(C)C)n2n(c1=O)CCOCC2` [Ex. I-2-b-19], for which the “Kill rate in % after 7d” value in experiment [3] is on record as 100%.
As for `Cc1ccc(-c2cccc(Cl)c2)cc1-c1c(OC(=O)C(C)(C)C)n2n(c1=O)CCOCC2` [Ex. I-2-b-2], in experiment [4] (500 g/ha), the “Kill rate in % after 7d” value came to 100%.
On the same count and under the same terms, in the case of `CCOC(=O)Oc1c(-c2cc(-c3ccc(C(F)(F)F)cc3)ccc2C)c(=O)n2n1CCOCC2` [Ex. I-2-c-20] it was 100%.
As for `Cc1ccc(-c2ccc(OC(F)(F)F)cc2)cc1-c1c(OC(=O)C(C)(C)C)n2n(c1=O)CCCC2` [Ex. I-1-b-27], the “Kill rate in % after 7d” value in experiment [3] was determined as 100%.
For `CCOC(=O)Oc1c(-c2cc(-c3ccc(Cl)c(Cl)c3)ccc2C)c(=O)n2n1CCCC2` [Ex. I-1-c-13], the “Kill rate in % after 7d” value in experiment [4] (500 g/ha) is 83%.
Turning to `CCOC(=O)Oc1c(-c2cc(-c3ccc(C)cc3)ccc2C)c(=O)n2n1CCOCC2` [Ex. I-2-c-9], the “Kill rate in % after 7d” value in experiment [3] is listed as 100%.
Take `CCOC(=O)Oc1c(-c2cc(-c3ccc(Cl)c(Cl)c3)ccc2C)c(=O)n2n1CCOCC2` [Ex. I-2-c-13]: the “Kill rate in % after 7d” value in experiment [4] (500 g/ha) is given as 100%.
As for `Cc1cc(C)c(-c2c(OC(=O)C(C)(C)C)n3n(c2=O)CCOCC3)c(C)c1-c1ccc(F)cc1` [Ex. I-2-b-32], the “Kill rate in % after 7d” value in experiment [3] was 100%.
For the molecule `Cc1ccc(-c2cccc([N+](=O)[O-])c2)cc1-c1c(O)n2n(c1=O)CCOCC2` [Example I-2-a-26], the “Kill rate in % after 7d” value in experiment [3] was 100%.
